Experimental data: ChEMBL document CHEMBL1153827, “Novel aminopeptidase N inhibitors derived from antineoplaston AS2-5 (Part II)” (Bioorg Med Chem, 2009); call rule not given here

What was measured:
[1] = target: T1, Aminopeptidase N (Sus scrofa, UniProt P15145); assay: Inhibition of pig kidney microsomal aminopeptidase N after 30 mins by UV-VIS spectrophotometry
T1 sequence (P15145 whole entry): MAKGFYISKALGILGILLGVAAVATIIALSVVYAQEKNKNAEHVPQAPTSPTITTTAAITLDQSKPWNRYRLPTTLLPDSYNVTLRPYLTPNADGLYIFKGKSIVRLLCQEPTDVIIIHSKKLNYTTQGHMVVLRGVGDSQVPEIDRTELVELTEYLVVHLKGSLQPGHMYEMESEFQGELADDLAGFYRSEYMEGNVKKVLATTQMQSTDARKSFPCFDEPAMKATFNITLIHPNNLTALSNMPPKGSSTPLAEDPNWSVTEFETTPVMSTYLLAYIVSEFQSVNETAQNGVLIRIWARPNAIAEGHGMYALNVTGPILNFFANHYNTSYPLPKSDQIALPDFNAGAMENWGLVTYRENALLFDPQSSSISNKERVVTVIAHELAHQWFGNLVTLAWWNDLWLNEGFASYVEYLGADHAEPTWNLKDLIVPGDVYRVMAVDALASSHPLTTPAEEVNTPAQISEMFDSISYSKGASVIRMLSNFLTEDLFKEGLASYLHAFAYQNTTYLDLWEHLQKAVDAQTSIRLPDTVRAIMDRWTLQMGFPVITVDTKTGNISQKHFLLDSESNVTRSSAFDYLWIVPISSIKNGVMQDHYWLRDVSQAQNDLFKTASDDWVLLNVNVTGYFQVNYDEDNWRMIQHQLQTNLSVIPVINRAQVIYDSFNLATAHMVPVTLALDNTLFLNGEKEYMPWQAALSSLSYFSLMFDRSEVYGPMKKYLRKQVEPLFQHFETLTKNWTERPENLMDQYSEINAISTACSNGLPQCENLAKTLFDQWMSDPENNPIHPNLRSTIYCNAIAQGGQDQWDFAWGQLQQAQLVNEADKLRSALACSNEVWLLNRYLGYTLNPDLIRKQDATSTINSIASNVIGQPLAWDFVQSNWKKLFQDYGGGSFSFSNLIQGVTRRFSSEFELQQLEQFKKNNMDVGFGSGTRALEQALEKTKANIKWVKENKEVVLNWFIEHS

[2] = target: 72 kDa type IV collagenase (Homo sapiens, UniProt P08253); assay: Inhibition of MMP2
Chain of 72 kDa type IV collagenase (P08253 whole entry): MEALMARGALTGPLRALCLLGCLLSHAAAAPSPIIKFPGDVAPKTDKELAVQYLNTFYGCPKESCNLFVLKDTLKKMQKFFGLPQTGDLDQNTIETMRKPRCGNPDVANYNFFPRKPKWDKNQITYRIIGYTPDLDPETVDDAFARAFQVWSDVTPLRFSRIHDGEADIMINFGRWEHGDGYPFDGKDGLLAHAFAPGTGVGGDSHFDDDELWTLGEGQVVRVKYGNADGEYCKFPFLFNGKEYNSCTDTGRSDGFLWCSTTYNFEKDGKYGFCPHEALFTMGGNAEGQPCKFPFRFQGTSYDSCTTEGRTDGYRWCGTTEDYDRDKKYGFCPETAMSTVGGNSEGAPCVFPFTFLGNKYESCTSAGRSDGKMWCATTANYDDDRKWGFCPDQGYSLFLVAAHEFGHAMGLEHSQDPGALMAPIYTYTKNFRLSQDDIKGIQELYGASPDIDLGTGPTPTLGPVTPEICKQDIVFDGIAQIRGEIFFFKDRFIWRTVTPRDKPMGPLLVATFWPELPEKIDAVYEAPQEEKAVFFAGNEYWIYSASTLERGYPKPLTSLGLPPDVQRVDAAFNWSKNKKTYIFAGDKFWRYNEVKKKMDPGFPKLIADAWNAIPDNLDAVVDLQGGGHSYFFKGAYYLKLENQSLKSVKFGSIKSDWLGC

Structure (SMILES)	IC50 ([1]; read-out: IC50) [µM]	IC50 ([2]; read-out: IC50) [µM]	IC50 [1]	IC50 [2]
COC(=O)CC(NC(=O)CC[C@H](NC(=O)/C=C/c1ccc(OC)c(OC)c1)C(=O)NC(CC(=O)OC)C(=O)OC)C(=O)OC (stereo not given in full)	213	341	–	–
COc1ccc(/C=C/C(=O)N[C@@H](CCC(=O)Nc2cc(F)cc(F)c2)C(=O)Nc2cc(F)cc(F)c2)cc1OC	–	–	Not Active	Not Active
COc1ccc(/C=C/C(=O)N[C@@H](CCC(=O)Nc2ccc(C)cc2)C(=O)Nc2ccc(C)cc2)cc1OC	335	398	–	–
COc1ccc(/C=C/C(=O)N[C@@H](CCC(=O)Nc2ccc(F)cc2)C(=O)Nc2ccc(F)cc2)cc1OC	371	368	–	–
COc1ccc(/C=C/C(=O)N[C@@H](CCC(=O)O)C(=O)NCC(C)C)cc1OC	207	256	–	–
COc1ccc(/C=C/C(=O)N[C@@H](CCC(=O)Nc2ccc(Cl)cc2)C(=O)Nc2ccc(Cl)cc2)cc1OC	405	471	–	–
COc1ccc(/C=C/C(=O)N[C@@H](CCC(=O)Nc2ccc(Br)cc2)C(=O)Nc2ccc(Br)cc2)cc1OC	578	–	–	Not Active
COc1ccc(/C=C/C(=O)N[C@@H](CCC(=O)Nc2ccccc2F)C(=O)Nc2ccccc2F)cc1OC	405	471	–	–
CCNC(=O)[C@H](CCC(=O)O)NC(=O)/C=C/c1ccc(OC)c(OC)c1	184	211	–	–
CCCNC(=O)[C@H](CCC(=O)O)NC(=O)/C=C/c1ccc(OC)c(OC)c1	237	284	–	–

More lines, now with the values ahead:

IC50 ([1]; read-out: IC50) [µM]	IC50 ([2]; read-out: IC50) [µM]	IC50 [1]	IC50 [2]	Structure (SMILES)
98.6	116	–	–	COc1ccc(/C=C/C(=O)N[C@@H](CCC(=O)O)C(=O)Nc2cc(F)cc(F)c2)cc1OC
56.8	71.4	–	–	COc1ccc(/C=C/C(=O)N[C@@H](CCC(=O)O)C(=O)Nc2ccccc2F)cc1OC
38.3	64.3	–	–	COc1ccc(/C=C/C(=O)N[C@@H](CCC(=O)O)C(=O)Nc2ccccc2Cl)cc1OC
80.5	121	–	–	COc1ccc(/C=C/C(=O)N[C@@H](CCC(=O)O)C(=O)Nc2cccc(Cl)c2)cc1OC
20.7	37.8	–	–	COc1ccc(/C=C/C(=O)N[C@@H](CCC(=O)O)C(=O)Nc2ccc(C)cc2)cc1OC
23.4	47.6	–	–	COc1ccc(/C=C/C(=O)N[C@@H](CCC(=O)O)C(=O)Nc2ccc(F)cc2)cc1OC
50.4	79.6	–	–	COC(=O)CNC(=O)[C@H](CCC(=O)O)NC(=O)/C=C/c1ccc(OC)c(OC)c1
55.1	83.2	–	–	COC(=O)C(C)NC(=O)[C@H](CCC(=O)O)NC(=O)/C=C/c1ccc(OC)c(OC)c1 (stereo not given in full)
178	236	–	–	COc1ccc(/C=C/C(=O)N[C@@H](CCC(=O)O)C(=O)NCc2ccccc2)cc1OC
126	159	–	–	CNC(=O)[C@H](CCC(=O)O)NC(=O)/C=C/c1ccc(OC)c(OC)c1
69.2	76.8	–	–	COC(=O)C(NC(=O)[C@H](CCC(=O)O)NC(=O)/C=C/c1ccc(OC)c(OC)c1)C(C)C (stereo not given in full)
58.1	71.2	–	–	COc1ccc(/C=C/C(=O)N[C@@H](CCC(=O)O)C(=O)Nc2ccc(Br)cc2)cc1OC
34.5	59.9	–	–	COc1ccc(/C=C/C(=O)N[C@@H](CCC(=O)O)C(=O)Nc2ccc(Cl)cc2)cc1OC
60.5	101	–	–	COC(=O)CC(NC(=O)[C@H](CCC(=O)O)NC(=O)/C=C/c1ccc(OC)c(OC)c1)C(=O)OC (stereo not given in full)
43.7	76.5	–	–	COC(=O)C(Cc1ccc(F)cc1)NC(=O)[C@H](CCC(=O)O)NC(=O)/C=C/c1ccc(OC)c(OC)c1 (stereo not given in full)
